As usually defined, the pIC50 is the negative decadic logarithm of the IC50, by convention in mol/L. Read a low pIC50 as a large IC50.

Each structure is given as a SMILES string. pIC50: −log10 of the molar value. A value given as a limit tells only on which side of the number the result lay.

The nature of the assay: Ability to inhibit Human cytomegalovirus (HCMV) protease activity.
In the case of `C[C@@H]1C(=O)N(c2ccc([N+](=O)[O-])cc2[N+](=O)[O-])[C@H]2CCN(C(=O)OCc3ccccc3)C12` (stereo partly drawn) [4-(2,4-Dinitro-phenyl)-6-methyl-5-oxo-hexahydro-pyrrolo[3,2-b]pyrrole-1-carboxylic acid benzyl ester], the pIC50 is 3.30.

Turning to `CC(=O)C=CN1C(=O)[C@@H](C)C2[C@@H]1CCN2C(=O)OCc1ccccc1` (stereo partly drawn) [6-Methyl-5-oxo-4-(3-oxo-but-1-enyl)-hexahydro-pyrrolo[3,2-b]pyrrole-1-carboxylic acid benzyl ester], the pIC50 was below 3.30.

Take `C[C@@H]1C(=O)N(C(=O)n2cccc2)[C@H]2CCN(C(=O)OCc3ccccc3)C12` (stereo partly drawn) [6-Methyl-5-oxo-4-(pyrrole-1-carbonyl)-hexahydro-pyrrolo[3,2-b]pyrrole-1-carboxylic acid benzyl ester]: the pIC50 is 3.60.
